Values quoted from earlier work, collected in patent US20060008512A1, “Composition and methods for improved animal performance” (priority 2004, published 2006).
Where two headings read alike, the source gives them in different places.

Experiments:
[1] = system: female Sprague-Dawley rats; details: fifteen days, cited from earlier work; for Concentration of reverse T3: control 71.7; for Concentration of T3: control 670
[2] = system: male rats; details: 200 mg/kg body weight i.v.; blood 30-240 minutes later; cited from earlier work
[3] = serum adjusted to 10 mM sodium salicylate; cited from earlier work
[4] = system: male rats; details: treated from birth to day 25, cited from earlier work
[5] = system: suckling rat pups; details: 0.1% solution in mother's drinking water, birth to 24 days, cited from earlier work
[6] = system: male Peterson broiler breeder chicks; details: 0.1% dietary, cited from earlier work
[7] = system: neonatal male rats; details: fed from birth to 24 days of age, cited from earlier work
[8] = system: cockerels; details: fed from 1 day of age; by the 14th week; cited from earlier work
[9] = system: young male Nile tilapia fish; details: 100 or 150 mg thiouracil/kg diet for 40 days; by 98 days; cited from earlier work
[10] = system: porcine thyroid follicles; details: cited from earlier work
[11] = system: isolated porcine thyroid follicles; details: 10 microM of iodide, comparison value; cited from earlier work
[12] = system: humans; details: daily doses of 100 to 200 mg iodide (from potassium iodide) per person; cited from earlier work
[13] = system: pigs; details: 1,000 mg betaine/kg diet; cited from earlier work
[14] = system: broiler chickens; details: finishing-phase T3 administration alone; cited from earlier work
[15] = system: growing cockerel and pullet chickens; details: 10 mg/kg dietary thyroid hormone; cited from earlier work
[16] = system: laying hens; details: 20 to 40 mg corticosterone/kg diet; cited from earlier work
[17] = system: pigs; details: 5 or 8 mg iodide/kg feed for 3 months; cited from earlier work
[18] = system: dogs; details: approximately 5 mg biotin/10 kg body weight for 3 to 5 weeks; cited from earlier work
[19] = system: White Leghorn hens; details: single i.m. injection releasing 60 mcg/kg body weight per day for 30 days, cited from earlier work
[20] = system: broiler breeder hen; details: 50 mg/kg feed; days 11 and 12; cited from earlier work

Cc1cc2c(C(C)C)c(O)c(O)c(C=O)c2c(O)c1-c1c(C)cc2c(C(C)C)c(O)c(O)c(C=O)c2c1O [gossypol acetic acid]
Concentration of reverse T3 ([1]; 5 mg/kg/day): 0.0372 ng/mL | Concentration of T3 ([1]; 5 mg/kg/day): 0.43 ng/mL | Concentration of reverse T3 ([1]; 10 mg/kg/day): 0.0242 ng/mL | Concentration of T3 ([1]; 10 mg/kg/day): 0.359 ng/mL

O=C([O-])c1ccccc1O.[Na+] [sodium salicylate]
Decrease in T3 [2]: 60% | Decrease in plasma T4 level [2]: 20% | Increase in reverse T3 [2]: 20% | Rise of free dialyzable fraction of T4 in vitro [3]: 125%

CCCc1cc(=O)[nH]c(=S)[nH]1 [6-propyl-2-thiouracil]
Increase of testis weight compared to controls ([4]; at 90 days): 40% | Increase of testis weight compared to controls ([4]; at 135 days): 60% | Increase of testis weight compared to controls ([4]; at 160 days): 80% | Decline of average Leydig cell volume ([5]; at 180 days): about 20% | Increase in number of Leydig cells per testis ([5]; at 180 days): 69% | Decline in number of hCG-binding sites (LH receptors) [5]: 50% | Reduction of LH-stimulated testosterone production in Leydig cells [5]: 55% | Increase in testis weight ([6]; 8 to 14 or 10 to 16 weeks of age): about 35% | Testis weight ([6]; 8 to 14 weeks of age, control 20.0 g): 27.7 g | Testis weight ([6]; 10 to 16 weeks of age, control 20.0 g): 27.7 g | Increase in mean testis weight at 28 weeks ([6]; fed from 6 to 12 weeks of age): 96% | Mean testis weight at 28 weeks ([6]; fed from 6 to 12 weeks of age, control 20.0 g): 39.3 g

O=c1cc[nH]c(=S)[nH]1 [thiouracil]
Increase in testis size ([7]; at 100 days): 68% | Time for serum T4 and T3 to return to control levels after removal [7]: ≤ 15 days | Weights of testes relative to controls [8]: about 10 times | Testis weight, gonadosomatic index, Sertoli, germ and Leydig cell numbers higher than control [9]: approximately 100%

I [iodide]
Rate of apoptosis ([10]; 2 and 20 microM iodide): 4-6% | Inhibitory effect of iodide on thyroid follicle proliferation [11]: 84±2% | Protection from radioactive iodide [12]: over 97%

C[N+](C)(C)CC(=O)O [betaine]
Decrease in feed conversion ratio [13]: 7.93% | Increase in average daily gain [13]: 13.20%

N[C@@H](Cc1cc(I)c(Oc2ccc(O)c(I)c2)c(I)c1)C(=O)O [T3, 3,5,3′-triiodo-L-thyronine]
Reduction in body fat [14]: 17-25% | Reduction in body weight gain compared to controls [15]: 55.24%

C[C@]12C[C@H](O)[C@H]3[C@@H](CCC4=CC(=O)CC[C@@]43C)[C@@H]1CC[C@@H]2C(=O)CO [corticosterone]
Laying hens with cessation of egg production [16]: 98%

CCCCC/C=C\C/C=C\C/C=C\CC(I)C1CCCC(=O)O1 (stereo not drawn) [delta-iodolactone]
Dose lower than iodide for comparable apoptosis ([10]; 0.05 to 0.5 microM delta-iodolactone): about 40 fold

[I-].[K+] [potassium iodide]
Increase of iodine content in adipose tissue [17]: 213% | Increase of iodine content in fresh muscle [17]: 45% | Increase of iodine content in heart [17]: 124% | Increase of iodine content in kidneys [17]: 127% | Increase of iodine content in liver [17]: 207%

O=C(O)CCCC[C@@H]1SC[C@@H]2NC(=O)N[C@@H]21 [biotin]
Cases cured [18]: 60%

CCNC(=O)[C@@H]1CCCN1C(=O)[C@H](CCCNC(=N)N)NC(=O)[C@H](CC(C)C)NC(=O)[C@@H](CC(C)C)NC(=O)[C@H](Cc1ccc(O)cc1)NC(=O)[C@H](CO)NC(=O)[C@H](Cc1c[nH]c2ccccc12)NC(=O)[C@H](Cc1c[nH]cn1)NC(=O)[C@@H]1CCC(=O)N1 [leuprolide acetate]
Body weight [19]: no body weight loss | Egg production ([19]; second week): 3.5%

Nicarbazin
Hatchability [20]: 31%
